Data from patent publication US20130172308A1, “ANTIMICROBIAL AGENTS” (John Grant COLLINS, priority 2011, published 2013).

Columns and labels:
[1] = assay type: physicochemical; details: pH 7.4
Description: The primary difference between the members of the Rubbn family of complexes is the number of methylene groups in the flexible linking chain. […] Lipophilicity is a significant factor affecting the biological activity of most therapeutic compounds, as it relates to the capacity of the drug to penetrate through the cell membrane. The standard octanol-water partition coefficient (logP) was determined for the Rubbn series (F. Lombardo, B. Faller, M. Shalaeva, I. Tetko and S. Tilton, Methods and Principles in Medicinal Chemistry, 2008, 37, 407) parent model mononuclear species ([Ru(phen)2(Me2bpy)]^2+) and the trinuclear and tetranuclear complexes.
The partition coefficients (logP) were measured using the shake flask technique: each ruthenium complex (at both 0.05 and 0.1 mM) was dissolved in the water phase (0.2 M Na2HPO4—NaH2PO4 buffer, pH=7.4) and an equivalent volume of n-octanol was added.
The two phases were mutually saturated by shaking overnight at ambient temperature and then were allowed to separate on standing. The concentration of the metal complex in each phase was determined spectrophotometrically at l=450 nm.

S. aureus ATCC 25923 = assay: MIC determination, broth micro-dilution (CAMHB); assay type: cell-based, Staphylococcus aureus; details: Table 1; 37° C., 24 h
Description: (§1) Four strains of bacteria were chosen for the susceptibility tests: S. aureus ATCC 25923; MRSA (a wild clinical strain from the JCU culture collection); E. coli ATCC 25922 and P. aeruginosa ATCC 27853. The bacteria were grown on Mueller Hinton agar (OXOID, cat. No. CM0337) and suspended in growth medium cation-adjusted Mueller Hinton broth (CAMHB, OXOID, cat. No. CM0405). The MIC of each complex was determined in duplicate by standard micro-dilution methodology (British Society for Antimicrobial Chemotherapy Working Party, J. Antimicrob. Chemother., 1991, 27(suppl. D), 22) using gentamicin as the positive control. The ruthenium complexes were dissolved in CAMHB to a stock solution of […] and two-fold diluted in the broth in 96-well plates in a final volume of […] in each well. The same volume […] of bacterial suspension was added in each well making a concentration range of 0.25 mg ml^−1 to 128 mg ml^−1 for each complex. The plates were incubated at 37° C. for 24 h. The results are summarised in Table 1 below, using the following abbreviations: • Rubpm=ΔΔ-[{Ru(phen)2}2(μ-2,2′-bipyrimidine)]Cl4 • Rudppm=ΔΔ-[{Ru(phen)2}2(μ-4,6-bis(2-pyridyl)pyrimidine)]Cl4 • Rubb7trinuclear=Δ*Δ*-[{Ru*(phen)2}(μ-bb7){Ru(phen)}(μ-bb7){Ru*(phen)2}]Cl6 (only the two terminal metal centres are chiral, the two central metal centres are racemic) • Rubb7tetranuclear=Δ*Δ*-[{Ru*(phen)2}(μ-bb7) {Ru(phen)}(μ-bb7){Ru(phen)}(μ-bb7)-{Ru*(phen)2}]Cl8 (only the two terminal metal centres are chiral, the two central metal centres are racemic)
(§2) Further MIC assays and Minimum Bactericidal Concentration (MBC) assays were conducted against Gram-positive and Gram-negative bacterial strains using symmetric and non-symmetric, inert and labile complexes.

E. coli ATCC 25922 = assay: MIC determination, broth micro-dilution (CAMHB); assay type: cell-based, Escherichia coli; details: Table 1; 37° C., 24 h
Description: as §1, §2

P. aeruginosa ATCC 27853 = assay: MIC determination, broth micro-dilution (CAMHB); assay type: cell-based, Pseudomonas aeruginosa; details: Table 1; 37° C., 24 h
Description: as §1, §2

[2] = system: MRSA (a wild clinical strain from the JCU culture collection); assay: MIC determination, broth micro-dilution (CAMHB); assay type: cell-based, methicillin-resistant S. aureus; details: Table 1; 37° C., 24 h
Description: as §1, §2

Row | Compound | logP [1] | MIC S. aureus (S. aureus ATCC 25923) | MIC E. coli (E. coli ATCC 25922) | MIC P. aeruginosa (P. aeruginosa ATCC 27853) | MIC MRSA [2]
1 | Cc1cc[n+]2c(c1)-c1cc(CCc3cc[n+]4c(c3)-c3cc(C)cc[n+]3[Ru-4]435([n+]4cccc6ccc7ccc[n+]3c7c64)[n+]3cccc4ccc6ccc[n+]5c6c43)cc[n+]1[Ru-4]213([n+]2cccc4ccc5ccc[n+]1c5c42)[n+]1cccc2ccc4ccc[n+]3c4c21 [Rubb2, [{Ru(phen)2}2(μ-bb2)]^4+] | −3.6 |  |  |  | 
2 | Cc1ccnc(-c2cc(CCCCCCCc3cc[n+]4c(c3)-c3cc(C)cc[n+]3[Ru-4]435([n+]4cccc6ccc7ccc[n+]3c7c64)[n+]3cccc4ccc6ccc[n+]5c6c43)ccn2)c1 [Rubb7mono, Δ-[Ru(phen)2(bb7)]^2+] | −0.7 | 4 µg/mL | 16 µg/mL | 32 µg/mL | 16 µg/mL
3 | Cc1ccnc(-c2cc(CCCCCCCCCCc3ccnc(-c4cc(C)ccn4)c3)ccn2)c1.F[P-](F)(F)(F)(F)F.F[P-](F)(F)(F)(F)F.F[P-](F)(F)(F)(F)F.F[P-](F)(F)(F)(F)F.[Ru+2].[Ru+2].c1cnc2c(c1)ccc1cccnc12.c1cnc2c(c1)ccc1cccnc12.c1cnc2c(c1)ccc1cccnc12.c1cnc2c(c1)ccc1cccnc12 [Rubb10, [{Ru(phen)2}2(μ-bb10)](PF6)4] | −3.3 |  |  |  | 
4 | Cc1cc[n+]2c(c1)-c1cc(CCCCCCCCCCCCCCc3cc[n+]4c(c3)-c3cc(C)cc[n+]3[Ru-4]435([n+]4cccc6ccc7ccc[n+]3c7c64)[n+]3cccc4ccc6ccc[n+]5c6c43)cc[n+]1[Ru-4]213([n+]2cccc4ccc5ccc[n+]1c5c42)[n+]1cccc2ccc4ccc[n+]3c4c21.[Cl-].[Cl-].[Cl-].[Cl-] [Rubb14, [{Ru(phen)2}2(μ-bb14)]Cl4] | −2.3 |  |  |  | 
5 | Cc1cnc2c(ccc3c(C)c(C)cnc32)c1C.Cc1cnc2c(ccc3c(C)c(C)cnc32)c1C.Cc1cnc2c(ccc3c(C)c(C)cnc32)c1C.[Ru+2] [[Ru(Me4phen)3]^2+, reference compound] |  | 0.5 µg/mL | 8 µg/mL | 32 µg/mL | 4 µg/mL
6 | [Ru+2].c1cnc2c(c1)ccc1cccnc12.c1cnc2c(c1)ccc1cccnc12.c1cnc2c(c1)ccc1cccnc12 [[Ru(phen)3]^2+, reference compound] |  | >128 µg/mL | >128 µg/mL | >128 µg/mL | >128 µg/mL
7 | Cc1cc[n+]2c(c1)-c1cc(CCc3cc[n+]4c(c3)-c3cc(C)cc[n+]3[Ru-4]435([n+]4cccc6ccc7ccc[n+]3c7c64)[n+]3cccc4ccc6ccc[n+]5c6c43)cc[n+]1[Ru-4]213([n+]2cccc4ccc5ccc[n+]1c5c42)[n+]1cccc2ccc4ccc[n+]3c4c21 [ΔΔ-Rubb2, [{Ru(phen)2}2(μ-bb2)]^4+] |  |  | >128 µg/mL |  | 
8 | Cc1cc[n+]2c(c1)-c1cc(CCc3cc[n+]4c(c3)-c3cc(C)cc[n+]3[Ru-4]435([n+]4cccc6ccc7ccc[n+]3c7c64)[n+]3cccc4ccc6ccc[n+]5c6c43)cc[n+]1[Ru-4]213([n+]2cccc4ccc5ccc[n+]1c5c42)[n+]1cccc2ccc4ccc[n+]3c4c21 [ΛΛ-Rubb2, [{Ru(phen)2}2(μ-bb2)]^4+] |  | >128 µg/mL |  | >128 µg/mL | >128 µg/mL
9 | Cc1cc[n+]2c(c1)-c1cc(CCCCCCCc3cc[n+]4c(c3)-c3cc(C)cc[n+]3[Ru-4]435([n+]4cccc6ccc7ccc[n+]3c7c64)[n+]3cccc4ccc6ccc[n+]5c6c43)cc[n+]1[Ru-4]213([n+]2cccc4ccc5ccc[n+]1c5c42)[n+]1cccc2ccc4ccc[n+]3c4c21.F[P-](F)(F)(F)(F)F.F[P-](F)(F)(F)(F)F.F[P-](F)(F)(F)(F)F.F[P-](F)(F)(F)(F)F [ΛΛ-Rubb7, [{Ru(phen)2}2(μ-bb7)](PF6)4] |  | 64 µg/mL | 16 µg/mL | 64 µg/mL | 32 µg/mL
10 | Cc1ccnc(-c2cc(CCCCCCCCCCc3ccnc(-c4cc(C)ccn4)c3)ccn2)c1.F[P-](F)(F)(F)(F)F.F[P-](F)(F)(F)(F)F.F[P-](F)(F)(F)(F)F.F[P-](F)(F)(F)(F)F.[Ru+2].[Ru+2].c1cnc2c(c1)ccc1cccnc12.c1cnc2c(c1)ccc1cccnc12.c1cnc2c(c1)ccc1cccnc12.c1cnc2c(c1)ccc1cccnc12 [ΛΛ-Rubb10, [{Ru(phen)2}2(μ-bb10)](PF6)4] |  | 8 µg/mL | 4 µg/mL | 32 µg/mL | 8 µg/mL
11 | Cc1cc[n+]2c(c1)-c1cc(CCCCCCCCCCCCCCc3cc[n+]4c(c3)-c3cc(C)cc[n+]3[Ru-4]435([n+]4cccc6ccc7ccc[n+]3c7c64)[n+]3cccc4ccc6ccc[n+]5c6c43)cc[n+]1[Ru-4]213([n+]2cccc4ccc5ccc[n+]1c5c42)[n+]1cccc2ccc4ccc[n+]3c4c21.[Cl-].[Cl-].[Cl-].[Cl-] [ΛΛ-Rubb14, [{Ru(phen)2}2(μ-bb14)]Cl4] |  | 1 µg/mL | 2 µg/mL | 8 µg/mL | 1 µg/mL
12 | Cc1ccnc(-c2cc(CCCCCCCCCCCCCCCCc3ccnc(-c4cc(C)ccn4)c3)ccn2)c1.[Cl-].[Cl-].[Cl-].[Cl-].[Ru+2].[Ru+2].c1cnc2c(c1)ccc1cccnc12.c1cnc2c(c1)ccc1cccnc12.c1cnc2c(c1)ccc1cccnc12.c1cnc2c(c1)ccc1cccnc12 [ΛΛ-Rubb16, [{Ru(phen)2}2(μ-bb16)]Cl4] |  | 1 µg/mL | 4 µg/mL | 8 µg/mL | 1 µg/mL
13 | [Ru(Me2phen)3]^2+ [reference compound] |  | 8 µg/mL | 128 µg/mL | >128 µg/mL | 128 µg/mL
14 | [{Ru(phen)2}2(μ-bb5)](PF6)4 [Rubb5] | −3.5 |  |  |  | 
15 | [{Ru(phen)2}2(μ-bb5)](PF6)4 [ΔΔ-Rubb5] |  | 128 µg/mL | 128 µg/mL | >128 µg/mL | 128 µg/mL
16 | [{Ru(phen)2}2(μ-bb5)](PF6)4 [ΛΛ-Rubb5] |  | 128 µg/mL | 64 µg/mL | 128 µg/mL | 128 µg/mL
17 | [{Ru(phen)2}2(μ-bb12)] [ΛΛ-Rubb12] |  | 2 µg/mL | 2 µg/mL | 16 µg/mL | 2 µg/mL
18 | Δ*Δ*-[{Ru*(phen)2}(μ-bb7) {Ru(phen)}(μ-bb7){Ru(phen)}(μ-bb7)-{Ru*(phen)2}]Cl8 [Rubb7tetranuclear] | −1.9 | 8 µg/mL | 32 µg/mL | 8 µg/mL | 8 µg/mL
19 | Δ*Δ*-[{Ru*(phen)2}(μ-bb7){Ru(phen)}(μ-bb7){Ru*(phen)2}]Cl6 [Rubb7trinuclear] | −1.2 | 4 µg/mL | 16 µg/mL | 2 µg/mL | 4 µg/mL
20 | ΔΔ-[{Ru(phen)2}2(μ-bb14)](PF6)4 [ΔΔ-Rubb14] |  | 1 µg/mL | 4 µg/mL | 8 µg/mL | 1 µg/mL
21 | ΔΔ-[{Ru(phen)2}2(μ-bbN7)] [ΔΔ-RubbN7] |  | >128 µg/mL | >128 µg/mL | >128 µg/mL | >128 µg/mL
22 | ΔΔ-[{Ru(phen)2}2(μ-bbN12)]Cl4 [ΔΔ-RubbN12] |  | 128 µg/mL | 128 µg/mL | >128 µg/mL | 128 µg/mL
23 | ΔΔ-[{Ru(phen)2}2(μ-bbO7)](PF6)4 [ΔΔ-RubbO7] |  | 128 µg/mL | 128 µg/mL | >128 µg/mL | 128 µg/mL
